# Measurements: patent US20220304945A1, “METHODS OF TREATING METABOLIC SYNDROME RELATED CONDITIONS USING RETINOIC ACID RECEPTOR AGONISTS” (Cornell University, priority 2014, published 2022)
# Key:
# RARβ2 = molecular target: T1, RARβ2 (Homo sapiens, UniProt P10826); conditions: as described in Lund et al. 2005; cited from earlier work
# T1 sequence (P10826 1-448 isoform P10826-2): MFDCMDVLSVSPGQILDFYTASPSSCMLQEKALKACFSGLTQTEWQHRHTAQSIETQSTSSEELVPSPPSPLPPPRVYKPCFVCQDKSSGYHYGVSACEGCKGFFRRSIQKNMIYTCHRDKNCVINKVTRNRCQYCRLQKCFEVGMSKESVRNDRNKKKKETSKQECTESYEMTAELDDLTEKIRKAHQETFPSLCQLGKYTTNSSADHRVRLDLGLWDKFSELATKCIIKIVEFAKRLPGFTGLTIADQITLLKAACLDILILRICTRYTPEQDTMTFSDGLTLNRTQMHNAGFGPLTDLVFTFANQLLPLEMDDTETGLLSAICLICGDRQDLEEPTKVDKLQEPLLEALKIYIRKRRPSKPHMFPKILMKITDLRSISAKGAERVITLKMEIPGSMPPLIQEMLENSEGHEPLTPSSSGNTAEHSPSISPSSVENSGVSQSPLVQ
# HF-fed C57/BL6 mice [1] = assay: Metabolic studies (body weight, GTT) in HF-fed wild type mice, 4 months; assay type: in vivo, mouse; conditions: obese HF-fed mice, 3.0 mg/100 ml drinking water
# Procedure: Mice, diet, and drug treatment. Dietary Obesity Studies: Wild type (wt) male C57/BL6 male mice were maintained on either a standard laboratory chow-fed diet (Con) with 13% kcal fat, (diet #5053, Lab Diet, Inc, St. Louis, Mo.) or a high fat, western style diet (HFD) with 45% kcals from fat, (diet #58126, Lab Diet, Inc., St. Louis, Mo.) for 4 months. […]
# Metabolic Measurements-Glucose tolerance was performed using an intraperitoneal glucose tolerance test (GTT) as previously described (Trasino et al., Vitamin A Deficiency Causes Hyperglycemia and Loss of Pancreatic β-Cell Mass, J Biol Chem. 2014 Dec. 1. pii: jbc.M114.616763). […] Tail vein blood glucose was measured at 20, 40, 60 and 120 minutes after injection using a FreeStyle Lite Blood Glucose Monitoring System (Abbott Diabetes Care, Inc. Alameda, Calif.). To determine insulin secretion responses to glucose, serum fractions were isolated between 0-60 minutes post glucose injections and insulin concentrations were measured using an Ultrasensitive Insulin ELISA Kit (Alpco, Inc. Salem, N.H.). Random blood glucose measurements were taken from tail veins of 4 mice per group at 2-3 random time points daily Means are expressed as±standard error of the mean (S.E.M) and P-values were calculated using one-way analysis of variance followed by Bonferroni post-hoc analysis.
# Ob/Ob and Db/Db mice = assay: Metabolic studies (body weight, GTT, insulin secretion, ITT) in Ob/Ob and Db/Db mice, 8 weeks; assay type: in vivo, mouse; conditions: genetically obese and diabetic Ob/Ob and Db/Db mice
# HF-fed C57/BL6 mice [2] = assay: HF-fed mice treated 3 months: body weight, GTT, fasting glucose (Example 22); assay type: in vivo, mouse
# Procedure: METHODS. Preparation of RARβ agonists solution. AC261066 and AC55649 were dissolved in dimethyl sulfoxide (DMSO) at the concentration of 3.0 mg/ml and diluted in the drinking water for mice to the final concentration of 3.0-mg/100 ml. Mice, diet, and drug treatments. Wt male C57/BL6 male mice were maintained on either a standard laboratory chow-fed diet (Con) with 13% kcal fat, (diet #5053, Lab Diet, Inc, St. Louis, Mo., [n=4]) or a high fat, western style diet (HFD) with 45% kcals from fat, (diet #58126, Lab Diet, Inc., St. Louis, Mo.) for 3 months. Two weeks after the start of the HFD treatment, the HFD group was further split into 3 groups for 3 months: i) HFD and drinking water containing 1% DMSO (n=5); ii) high fat diet (HFD) and drinking water containing 3.0 mg/100 ml AC261066, a specific RARβ agonist (n=5) or iii) HFD and drinking water containing 3.0 mg/100 ml AC55649, a specific RARβ agonist (n=4). After 3 months the mice were tested for glucose intolerance with an intra-peritoneal glucose tolerance test (GTT). Mice were then sacrificed by cervical dislocation. Blood and various tissue samples were harvested.
# Glucose Tolerance Test (GTT). Glucose tolerance was performed using an intraperitoneal glucose tolerance test (GTT). Mice were fasted overnight (˜16 hrs) followed by intra-peritoneal injections (n=3-5 per group) of 50% glucose in PBS at 2.0 g of glucose/kg of body weight. Tail vein blood was collected at 15, 30, 45, 60, and 120 minutes post-injection for glucose measurements using a FreeStyle Lite Blood Glucose Monitoring System (Abbott Diabetes Care, Inc. Alameda, Calif.). Random and fasting blood glucose measurements were taken from tail veins of 4 mice per group at 2-3 random time points daily or just prior to GTT. Means are expressed as ±standard error of the mean (S.E.M) and P-values were calculated using one-way analysis of variance followed by Bonferroni post-hoc analysis. Grubbs' maximum normal residual test was used for detection of one or more outliers.
structure (smiles),measurement,setting,value
"CCCCCCCCc1ccc(-c2ccc(C(=O)O)cc2)cc1 [AC55649, 4′-Octyl-[1,1′-biphenyl]-4-carboxylic acid]",isoform selectivity for the human RARβ2 receptors,RARβ2,highly isoform-selective agonists
same,body weights,HF-fed C57/BL6 mice [1],significant reductions
same,body weights,Ob/Ob and Db/Db mice,significant reductions
same,glucose tolerance and area under the curve glucose,HF-fed C57/BL6 mice [2],improved
same,overnight fasting glucose levels,HF-fed C57/BL6 mice [2],significant reductions
same,decrease in body weights compared to HF-fed mice,HF-fed C57/BL6 mice [2]; 3.0 mg/100 ml drinking water,~10%
